According to ChEMBL document CHEMBL3832058, “DailyMed|setid=78f196d4-110e-45b1-813a-725f52c1a4eb | OXCARBAZEPINE -oxcarbazepine tablet, film coated|Bryant Ranch Prepack”:

Tested on: Homo sapiens
Test: Pharmacokinetic parameters for Oxcarbazepine and its active metabolite, 10-Monohydroxy Carbazepine evaluated after oral administration of Oxcarbazepine tablets.
Type: ADME, organism-based
Conditions: in vivo, dosed compound id 11, dosed compound name OXCARBAZEPINE; for Excretion: tissue Urine

Row | Tmax (dietary status Fasting, gender male, regimen Single dose, tissue Plasma) [h] | t1/2 (dose 300 mg, regimen Single dose, tissue Plasma) [h] | Vd(app) (tissue Plasma) [L] | t1/2 (tissue Plasma) [h] | Excretion [%] | Compound
1 | 4.5 | 19 | 49 | 9 | 49 | NC(=O)N1c2ccccc2CC(O)c2ccccc21 (configuration not stated) [LICARBAZEPINE]
2 | – | – | – | 2 | 27 | NC(=O)N1c2ccccc2CC(=O)c2ccccc21 [OXCARBAZEPINE]
